From patent US20080249136A1, “Antimicrobial Composition and Method” (priority 2005, published 2008)

How the values were obtained:
[1] = test system: Staphylococcus aureus ATCC #6538; test: Efficacy (log kill) against Staphylococcus aureus, 96-well assay block; assay type: cell-based
Description: (§1) The cationic polymers are pH adjusted in the range of 6-7.5. It should be noted that the Ecopol polymers require an acidic environment for complete dissolution. Once the polymer is dissolved, NaOH can be used to bring the pH to the desired range.
(§2) The efficacy of the antimicrobial combinations against Staphylococcus aureus ATCC #6538 and Pseudomonas aeruginosa ATCC #10145 is measured. Testing is done in 96-well 1.5 ml polypropylene assay blocks using 96-well polypropylene sealing mats for covering the samples during incubation. The individual wells in the 96-well assay block are identified as follows: 12 columns numbered 1-12 across the top row of wells on the block, and 8 rows lettered A-H on the first column of the block. Columns 1 and 2 are reserved to test the activity of the biocide in buffer (pH 7.2) in the absence of the cationic polymer. Columns 11 and 12 are always reserved as control, to verify growth of the microorganism in the absence of the biocide. The preparation of the assay blocks involves the following steps in chronological order:
(§3) 1. Preparation of the biocide solution in an appropriate solvent at a concentration equal to 10 times the final concentration desired in row A; 2. Addition of predetermined amount of the stock biocide solution to each well in row A; 3. Addition of a predetermined amount of the solvent to rows B-H and wells 11A and 12A; 4. Serial dilution of the biocide, by transferring a predetermined amount of the solution from row A to row B, mixing, and repeating the transfer down all the rows. After the mixing step in row H, the transferring amount is taken out and disposed of; 5. Inoculation of the buffer and polymer solutions with the test organism. For bacteria, a 24-hour culture is used. Following the incubation period, the organism concentration in the medium is determined by reading the OD at 620 nm. This culture is used to inoculate the buffer and the polymer solution to a bacterial concentration of 1E6 cfu/ml. Fungal challenges are performed with fungal spores isolated from inoculated SDA slants. The spores are collected by swiping the slant with a sterile cotton swab and re-suspended in tryptic soy broth. Tween 80 is added to aid in spore separation and the suspension was homogenized. The spore concentration is obtained by use of a hemacytometer. This suspension is used to inoculate the buffer and the polymeric solutions to a spore concentration of 3-5E6 cfu/ml; 6. Addition of the inoculated buffer or polymer solution to each well. 7. Thorough mixing of the blends in each well; 8. Sampling for the time 0, 24 h, 48 h and 7 days reading is accomplished using a 96-well 300 μl polystyrene microplate. Tryptic Soy broth (TSB) is used for the bacterial studies and Malt (YM) broth buffered at pH 7.4 for fungal studies; 9. The microplates are incubated at 35° C. for bacteria and 30° C. for fungus, until the control samples show adequate growth; and 10. Data is recorded as the log reduction in microorganism concentration relative to the inoculum.

[2] = test system: Pseudomonas aeruginosa ATCC #10145; test: Efficacy (log kill) against Pseudomonas aeruginosa, 96-well assay block; assay type: cell-based
Description: as §1, §2, §3

ClC=CC[N+]12CN3CN(CN(C3)C1)C2.[Cl-] [CTAC, 1-(3-chloroallyl)-3,5,7-triaza-1-azoniaadamantane chloride]
Log kill 24 h ([1]; Active Conc. 52.7 ppm): 0 log | Log kill 48 h ([1]; Active Conc. 52.7 ppm): 0 log | Log kill 7 days ([1]; Active Conc. 52.7 ppm): 1 log | Log kill t0 ([1]; Active Conc. 52.7 ppm): 0 log | Log kill 24 h ([1]; Active Conc. 79 ppm): 0 log | Log kill 48 h ([1]; Active Conc. 79 ppm): 0 log | Log kill 7 days ([1]; Active Conc. 79 ppm): 1 log | Log kill t0 ([1]; Active Conc. 79 ppm): 0 log | Log kill 24 h ([1]; Active Conc. 177.8 ppm): 0 log | Log kill 48 h ([1]; Active Conc. 177.8 ppm): 0 log | Log kill 7 days ([1]; Active Conc. 177.8 ppm): 4 log | Log kill t0 ([1]; Active Conc. 177.8 ppm): 0 log | Log kill 24 h ([1]; Active Conc. 400 ppm): 0 log | Log kill 48 h ([1]; Active Conc. 400 ppm): 0 log | Log kill 7 days ([1]; Active Conc. 400 ppm): 6 log | Log kill t0 ([1]; Active Conc. 400 ppm): 0 log | Log kill 24 h ([2]; Active Conc. 46.8 ppm): 0 log | Log kill 48 h ([2]; Active Conc. 46.8 ppm): 0 log | Log kill 7 days ([2]; Active Conc. 46.8 ppm): 0 log | Log kill t0 ([2]; Active Conc. 46.8 ppm): 0 log | Log kill 24 h ([2]; Active Conc. 158 ppm): 0 log | Log kill 48 h ([2]; Active Conc. 158 ppm): 0.5 log | Log kill 7 days ([2]; Active Conc. 158 ppm): 5 log | Log kill t0 ([2]; Active Conc. 158 ppm): 0 log | Log kill 24 h ([2]; Active Conc. 355.6 ppm): 1 log | Log kill 48 h ([2]; Active Conc. 355.6 ppm): 4 log | Log kill 7 days ([2]; Active Conc. 355.6 ppm): 6 log | Log kill t0 ([2]; Active Conc. 355.6 ppm): 0 log | Log kill 24 h ([2]; Active Conc. 800 ppm): 2.5 log | Log kill 48 h ([2]; Active Conc. 800 ppm): 5 log | Log kill 7 days ([2]; Active Conc. 800 ppm): 6 log | Log kill t0 ([2]; Active Conc. 800 ppm): 0 log

Cc1ccc(S(=O)(=O)C(I)I)cc1 [DIMTS, diiodomethyl-para-tolylsulfone]
Log kill 24 h ([1]; Active Conc. 189.7 ppm): 0 log | Log kill 48 h ([1]; Active Conc. 189.7 ppm): 0 log | Log kill 7 days ([1]; Active Conc. 189.7 ppm): 0 log | Log kill t0 ([1]; Active Conc. 189.7 ppm): 0 log | Log kill 24 h ([1]; Active Conc. 265.6 ppm): 0 log | Log kill 48 h ([1]; Active Conc. 265.6 ppm): 0 log | Log kill 7 days ([1]; Active Conc. 265.6 ppm): 0 log | Log kill t0 ([1]; Active Conc. 265.6 ppm): 0 log | Log kill 24 h ([1]; Active Conc. 1428.6 ppm): 0 log | Log kill 48 h ([1]; Active Conc. 1428.6 ppm): 0 log | Log kill 7 days ([1]; Active Conc. 1428.6 ppm): 2 log | Log kill t0 ([1]; Active Conc. 1428.6 ppm): 0.5 log | Log kill 24 h ([1]; Active Conc. 2000 ppm): 1 log | Log kill 48 h ([1]; Active Conc. 2000 ppm): 1 log | Log kill 7 days ([1]; Active Conc. 2000 ppm): 6 log | Log kill t0 ([1]; Active Conc. 2000 ppm): 1 log | Log kill 24 h ([2]; Active Conc. 414 ppm): 0 log | Log kill 48 h ([2]; Active Conc. 414 ppm): 1 log | Log kill 7 days ([2]; Active Conc. 414 ppm): 2 log | Log kill t0 ([2]; Active Conc. 414 ppm): 0 log | Log kill 24 h ([2]; Active Conc. 2000 ppm): 1 log | Log kill 48 h ([2]; Active Conc. 2000 ppm): 1 log | Log kill 7 days ([2]; Active Conc. 2000 ppm): 2 log | Log kill t0 ([2]; Active Conc. 2000 ppm): 0 log

Oc1ccccc1-c1ccccc1 [OPP, ortho-phenylphenol]
Log kill 24 h ([1]; Active Conc. 124 ppm): 2 log | Log kill 48 h ([1]; Active Conc. 124 ppm): 2 log | Log kill 7 days ([1]; Active Conc. 124 ppm): 6 log | Log kill t0 ([1]; Active Conc. 124 ppm): 0 log | Log kill 24 h ([1]; Active Conc. 182.2 ppm): 6 log | Log kill 48 h ([1]; Active Conc. 182.2 ppm): 6 log | Log kill 7 days ([1]; Active Conc. 182.2 ppm): 6 log | Log kill t0 ([1]; Active Conc. 182.2 ppm): 1 log | Log kill 24 h ([1]; Active Conc. 278.9 ppm): 3.5 log | Log kill 48 h ([1]; Active Conc. 278.9 ppm): 3 log | Log kill 7 days ([1]; Active Conc. 278.9 ppm): 4 log | Log kill t0 ([1]; Active Conc. 278.9 ppm): 0.5 log | Log kill 24 h ([1]; Active Conc. 418.4 ppm): 6 log | Log kill 48 h ([1]; Active Conc. 418.4 ppm): 6 log | Log kill 7 days ([1]; Active Conc. 418.4 ppm): 4 log | Log kill t0 ([1]; Active Conc. 418.4 ppm): 6 log | Log kill 24 h ([2]; Active Conc. 130.2 ppm): 0 log | Log kill 48 h ([2]; Active Conc. 130.2 ppm): 1 log | Log kill 7 days ([2]; Active Conc. 130.2 ppm): 1.5 log | Log kill t0 ([2]; Active Conc. 130.2 ppm): 0 log | Log kill 24 h ([2]; Active Conc. 182.2 ppm): 1.5 log | Log kill 48 h ([2]; Active Conc. 182.2 ppm): 2.5 log | Log kill 7 days ([2]; Active Conc. 182.2 ppm): 2.5 log | Log kill t0 ([2]; Active Conc. 182.2 ppm): 1.5 log | Log kill 24 h ([2]; Active Conc. 222.2 ppm): 4.5 log | Log kill 48 h ([2]; Active Conc. 222.2 ppm): 3.5 log | Log kill 7 days ([2]; Active Conc. 222.2 ppm): 4 log | Log kill t0 ([2]; Active Conc. 222.2 ppm): 4 log

Oc1cc(Cl)ccc1Oc1ccc(Cl)cc1Cl [Triclosan, 2,4,4′-trichloro-2-hydroxyphenyl ether]
contact time to achieve 3 log reduction in P. aeruginosa ([2]; 800 ppm of Triclosan): greater than 48 hours | Log kill 24 h ([2]; Triclosan Conc. 105.3 ppm): 1 log | Log kill 48 h ([2]; Triclosan Conc. 105.3 ppm): 1 log | Log kill 7 days ([2]; Triclosan Conc. 105.3 ppm): 2 log | Log kill t0 ([2]; Triclosan Conc. 105.3 ppm): 0 log | Log kill 24 h ([2]; Triclosan Conc. 355.6 ppm): 1 log | Log kill 48 h ([2]; Triclosan Conc. 355.6 ppm): 2 log | Log kill 7 days ([2]; Triclosan Conc. 355.6 ppm): 2 log | Log kill t0 ([2]; Triclosan Conc. 355.6 ppm): 1 log | Log kill 24 h ([2]; Triclosan Conc. 800 ppm): 1 log | Log kill 48 h ([2]; Triclosan Conc. 800 ppm): 2.5 log | Log kill 7 days ([2]; Triclosan Conc. 800 ppm): 4 log | Log kill t0 ([2]; Triclosan Conc. 800 ppm): 1 log
